Test results published in ChEMBL document CHEMBL4020788, “Synthesis, SAR and molecular docking studies of benzo[d]thiazole-hydrazones as potential antibacterial and antifungal agents” (2017).
Calls of active or inactive are those of the source. The rule behind the calls is not given here.

What was measured:
Assay type in all cases: functional
Staphylococcus aureus [1] = experiment: Antibacterial activity against Staphylococcus aureus at 25 ug/ml after 24 hrs by agar well diffusion method; conditions: for zone of inhibition at 25 µg/mL: read-out: DIZ
Staphylococcus aureus [2] = experiment: Antibacterial activity against Staphylococcus aureus at 50 ug/ml after 24 hrs by agar well diffusion method; conditions: for zone of inhibition at 50 µg/mL: read-out: DIZ
Staphylococcus aureus [3] = experiment: Antibacterial activity against Staphylococcus aureus at 75 ug/ml after 24 hrs by agar well diffusion method; conditions: for zone of inhibition at 75 µg/mL: read-out: DIZ
Staphylococcus aureus [4] = experiment: Antibacterial activity against Staphylococcus aureus at 100 ug/ml after 24 hrs by agar well diffusion method; conditions: for zone of inhibition at 100 µg/mL: read-out: DIZ
Bacillus subtilis [5] = experiment: Antibacterial activity against Bacillus subtilis at 25 ug/ml after 24 hrs by agar well diffusion method; conditions: for zone of inhibition at 25 µg/mL: read-out: DIZ
Bacillus subtilis [6] = experiment: Antibacterial activity against Bacillus subtilis at 50 ug/ml after 24 hrs by agar well diffusion method; conditions: for zone of inhibition at 50 µg/mL: read-out: DIZ
Bacillus subtilis [7] = experiment: Antibacterial activity against Bacillus subtilis at 75 ug/ml after 24 hrs by agar well diffusion method; conditions: for zone of inhibition at 75 µg/mL: read-out: DIZ
Bacillus subtilis [8] = experiment: Antibacterial activity against Bacillus subtilis at 100 ug/ml after 24 hrs by agar well diffusion method; conditions: for zone of inhibition at 100 µg/mL: read-out: DIZ
Escherichia coli [9] = experiment: Antibacterial activity against Escherichia coli at 25 ug/ml after 24 hrs by agar well diffusion method
Escherichia coli [10] = experiment: Antibacterial activity against Escherichia coli at 50 ug/ml after 24 hrs by agar well diffusion method
Escherichia coli [11] = experiment: Antibacterial activity against Escherichia coli at 75 ug/ml after 24 hrs by agar well diffusion method; conditions: for zone of inhibition at 75 µg/mL: read-out: DIZ
Escherichia coli [12] = experiment: Antibacterial activity against Escherichia coli at 100 ug/ml after 24 hrs by agar well diffusion method; conditions: for zone of inhibition at 100 µg/mL: read-out: DIZ
Klebsiella pneumoniae [13] = experiment: Antibacterial activity against Klebsiella pneumoniae at 25 ug/ml after 24 hrs by agar well diffusion method
Klebsiella pneumoniae [14] = experiment: Antibacterial activity against Klebsiella pneumoniae at 50 ug/ml after 24 hrs by agar well diffusion method
Klebsiella pneumoniae [15] = experiment: Antibacterial activity against Klebsiella pneumoniae at 75 ug/ml after 24 hrs by agar well diffusion method
Klebsiella pneumoniae [16] = experiment: Antibacterial activity against Klebsiella pneumoniae at 100 ug/ml after 24 hrs by agar well diffusion method
Staphylococcus aureus [17] = experiment: Antibacterial activity against methicillin resistant Staphylococcus aureus MRSA090 at 25 ug/ml after 24 hrs by agar well diffusion method; conditions: for zone of inhibition at 25 µg/mL: MRSA090, 24 h, read-out: DIZ
Staphylococcus aureus [18] = experiment: Antibacterial activity against methicillin resistant Staphylococcus aureus MRSA090 at 50 ug/ml after 24 hrs by agar well diffusion method; conditions: for zone of inhibition at 50 µg/mL: MRSA090, 24 h, read-out: DIZ
Staphylococcus aureus [19] = experiment: Antibacterial activity against methicillin resistant Staphylococcus aureus MRSA090 at 75 ug/ml after 24 hrs by agar well diffusion method; conditions: for zone of inhibition at 75 µg/mL: MRSA090, 24 h, read-out: DIZ
Staphylococcus aureus [20] = experiment: Antibacterial activity against methicillin resistant Staphylococcus aureus MRSA090 at 100 ug/ml after 24 hrs by agar well diffusion method; conditions: for zone of inhibition at 100 µg/mL: MRSA090, 24 h, read-out: DIZ
Aspergillus niger [21] = experiment: Antifungal activity against Aspergillus niger at 25 ug/ml after 48 hrs by agar well diffusion method; conditions: for zone of inhibition at 25 µg/mL: read-out: DIZ
Aspergillus niger [22] = experiment: Antifungal activity against Aspergillus niger at 50 ug/ml after 48 hrs by agar well diffusion method; conditions: for zone of inhibition at 50 µg/mL: read-out: DIZ
Aspergillus niger [23] = experiment: Antifungal activity against Aspergillus niger at 75 ug/ml after 48 hrs by agar well diffusion method; conditions: for zone of inhibition at 75 µg/mL: read-out: DIZ
Aspergillus niger [24] = experiment: Antifungal activity against Aspergillus niger at 100 ug/ml after 48 hrs by agar well diffusion method; conditions: for zone of inhibition at 100 µg/mL: read-out: DIZ
Fusarium verticillioides [25] = experiment: Antifungal activity against Fusarium moniliforme at 25 ug/ml after 48 hrs by agar well diffusion method; conditions: for zone of inhibition at 25 µg/mL: read-out: DIZ
Fusarium verticillioides [26] = experiment: Antifungal activity against Fusarium moniliforme at 50 ug/ml after 48 hrs by agar well diffusion method; conditions: for zone of inhibition at 50 µg/mL: read-out: DIZ
Fusarium verticillioides [27] = experiment: Antifungal activity against Fusarium moniliforme at 75 ug/ml after 48 hrs by agar well diffusion method; conditions: for zone of inhibition at 75 µg/mL: read-out: DIZ
Fusarium verticillioides [28] = experiment: Antifungal activity against Fusarium moniliforme at 100 ug/ml after 48 hrs by agar well diffusion method; conditions: for zone of inhibition at 100 µg/mL: read-out: DIZ
Fusarium oxysporum [29] = experiment: Antifungal activity against Fusarium oxysporum at 25 ug/ml after 48 hrs by agar well diffusion method
Fusarium oxysporum [30] = experiment: Antifungal activity against Fusarium oxysporum at 50 ug/ml after 48 hrs by agar well diffusion method; conditions: for zone of inhibition at 50 µg/mL: read-out: DIZ
Fusarium oxysporum [31] = experiment: Antifungal activity against Fusarium oxysporum at 75 ug/ml after 48 hrs by agar well diffusion method; conditions: for zone of inhibition at 75 µg/mL: read-out: DIZ
Fusarium oxysporum [32] = experiment: Antifungal activity against Fusarium oxysporum at 100 ug/ml after 48 hrs by agar well diffusion method; conditions: for zone of inhibition at 100 µg/mL: read-out: DIZ

## Cc1cccc2nc(N/N=C/c3ccc(F)cc3)sc12
Staphylococcus aureus [1]
  zone of inhibition at 25 µg/mL: 9 mm
Staphylococcus aureus [2]
  zone of inhibition at 50 µg/mL: 12 mm
Staphylococcus aureus [3]
  zone of inhibition at 75 µg/mL: 16 mm
Staphylococcus aureus [4]
  zone of inhibition at 100 µg/mL: 18 mm
Bacillus subtilis [5]
  zone of inhibition at 25 µg/mL: 6 mm
Bacillus subtilis [6]
  zone of inhibition at 50 µg/mL: 9 mm
Bacillus subtilis [7]
  zone of inhibition at 75 µg/mL: 12 mm
Bacillus subtilis [8]
  zone of inhibition at 100 µg/mL: 14 mm
Escherichia coli [9]; read-out: DIZ
  zone of inhibition at 25 µg/mL: 5 mm
Escherichia coli [10]; read-out: DIZ
  zone of inhibition at 50 µg/mL: 9 mm
Escherichia coli [11]
  zone of inhibition at 75 µg/mL: 14 mm
Escherichia coli [12]
  zone of inhibition at 100 µg/mL: 17 mm
Klebsiella pneumoniae [13]; read-out: DIZ
  zone of inhibition at 25 µg/mL: 6 mm
Klebsiella pneumoniae [14]; read-out: DIZ
  zone of inhibition at 50 µg/mL: 11 mm
Klebsiella pneumoniae [15]; read-out: DIZ
  zone of inhibition at 75 µg/mL: 16 mm
Klebsiella pneumoniae [16]; read-out: DIZ
  zone of inhibition at 100 µg/mL: 19 mm
Staphylococcus aureus [17]
  zone of inhibition at 25 µg/mL: 8 mm
Staphylococcus aureus [18]
  zone of inhibition at 50 µg/mL: 12 mm
Staphylococcus aureus [19]
  zone of inhibition at 75 µg/mL: 16 mm
Staphylococcus aureus [20]
  zone of inhibition at 100 µg/mL: 19 mm
Aspergillus niger [21]
  zone of inhibition at 25 µg/mL: 10 mm
Aspergillus niger [22]
  zone of inhibition at 50 µg/mL: 13 mm
Aspergillus niger [23]
  zone of inhibition at 75 µg/mL: 18 mm
Aspergillus niger [24]
  zone of inhibition at 100 µg/mL: 22 mm
Fusarium verticillioides [25]
  zone of inhibition at 25 µg/mL: 14 mm
Fusarium verticillioides [26]
  zone of inhibition at 50 µg/mL: 18 mm
Fusarium verticillioides [27]
  zone of inhibition at 75 µg/mL: 21 mm
Fusarium verticillioides [28]
  zone of inhibition at 100 µg/mL: 30 mm
Fusarium oxysporum [29]; read-out: DIZ
  zone of inhibition at 25 µg/mL: 10 mm
Fusarium oxysporum [30]
  zone of inhibition at 50 µg/mL: 13 mm
Fusarium oxysporum [31]
  zone of inhibition at 75 µg/mL: 18 mm
Fusarium oxysporum [32]
  zone of inhibition at 100 µg/mL: 21 mm

## CCCCCC/C=N/Nc1nc2cccc(C)c2s1
Staphylococcus aureus [1]
  diameter of the inhibition zone (DIZ): inactive
Staphylococcus aureus [2]
  diameter of the inhibition zone (DIZ): inactive
Staphylococcus aureus [3]
  diameter of the inhibition zone (DIZ): inactive
Staphylococcus aureus [4]
  diameter of the inhibition zone (DIZ): inactive
Bacillus subtilis [5]
  diameter of the inhibition zone (DIZ): inactive
Bacillus subtilis [6]
  diameter of the inhibition zone (DIZ): inactive
Bacillus subtilis [7]
  diameter of the inhibition zone (DIZ): inactive
Bacillus subtilis [8]
  diameter of the inhibition zone (DIZ): inactive
Escherichia coli [9]
  diameter of the inhibition zone (DIZ): inactive
Escherichia coli [10]
  diameter of the inhibition zone (DIZ): inactive
Escherichia coli [11]
  diameter of the inhibition zone (DIZ): inactive
Escherichia coli [12]
  diameter of the inhibition zone (DIZ): inactive
Klebsiella pneumoniae [13]
  diameter of the inhibition zone (DIZ): inactive
Klebsiella pneumoniae [14]
  diameter of the inhibition zone (DIZ): inactive
Klebsiella pneumoniae [15]
  diameter of the inhibition zone (DIZ): inactive
Klebsiella pneumoniae [16]
  diameter of the inhibition zone (DIZ): inactive
Staphylococcus aureus [17]
  diameter of the inhibition zone (DIZ): inactive
Staphylococcus aureus [18]
  diameter of the inhibition zone (DIZ): inactive
Staphylococcus aureus [19]
  diameter of the inhibition zone (DIZ): inactive
Staphylococcus aureus [20]
  diameter of the inhibition zone (DIZ): inactive
Aspergillus niger [21]
  diameter of the inhibition zone (DIZ): inactive
Aspergillus niger [22]
  diameter of the inhibition zone (DIZ): inactive
Aspergillus niger [23]
  diameter of the inhibition zone (DIZ): inactive
Aspergillus niger [24]
  diameter of the inhibition zone (DIZ): inactive
Fusarium verticillioides [25]
  diameter of the inhibition zone (DIZ): inactive
Fusarium verticillioides [26]
  diameter of the inhibition zone (DIZ): inactive
Fusarium verticillioides [27]
  diameter of the inhibition zone (DIZ): inactive
Fusarium verticillioides [28]
  diameter of the inhibition zone (DIZ): inactive
Fusarium oxysporum [29]
  diameter of the inhibition zone (DIZ): inactive
Fusarium oxysporum [30]
  diameter of the inhibition zone (DIZ): inactive
Fusarium oxysporum [31]
  diameter of the inhibition zone (DIZ): inactive
Fusarium oxysporum [32]
  diameter of the inhibition zone (DIZ): inactive

## Cc1cccc2nc(N/N=C/c3ccc(Cl)cc3)sc12
Staphylococcus aureus [1]
  zone of inhibition at 25 µg/mL: 5 mm
Staphylococcus aureus [2]
  zone of inhibition at 50 µg/mL: 9 mm
Staphylococcus aureus [3]
  zone of inhibition at 75 µg/mL: 11 mm
Staphylococcus aureus [4]
  zone of inhibition at 100 µg/mL: 13 mm
Bacillus subtilis [5]
  zone of inhibition at 25 µg/mL: 7 mm
Bacillus subtilis [6]
  zone of inhibition at 50 µg/mL: 9 mm
Bacillus subtilis [7]
  zone of inhibition at 75 µg/mL: 11 mm
Bacillus subtilis [8]
  zone of inhibition at 100 µg/mL: 14 mm
Escherichia coli [9]
  diameter of the inhibition zone (DIZ): inactive
Escherichia coli [10]
  diameter of the inhibition zone (DIZ): inactive
Escherichia coli [11]
  zone of inhibition at 75 µg/mL: 6 mm
Escherichia coli [12]
  zone of inhibition at 100 µg/mL: 10 mm
Klebsiella pneumoniae [13]
  diameter of the inhibition zone (DIZ): inactive
Klebsiella pneumoniae [14]
  diameter of the inhibition zone (DIZ): inactive
Klebsiella pneumoniae [15]
  diameter of the inhibition zone (DIZ): inactive
Klebsiella pneumoniae [16]
  diameter of the inhibition zone (DIZ): inactive
Staphylococcus aureus [17]
  zone of inhibition at 25 µg/mL: 4 mm
Staphylococcus aureus [18]
  zone of inhibition at 50 µg/mL: 9 mm
Staphylococcus aureus [19]
  zone of inhibition at 75 µg/mL: 12 mm
Staphylococcus aureus [20]
  zone of inhibition at 100 µg/mL: 15 mm
Aspergillus niger [21]
  zone of inhibition at 25 µg/mL: 8 mm
Aspergillus niger [22]
  zone of inhibition at 50 µg/mL: 13 mm
Aspergillus niger [23]
  zone of inhibition at 75 µg/mL: 16 mm
Aspergillus niger [24]
  zone of inhibition at 100 µg/mL: 19 mm
Fusarium verticillioides [25]
  zone of inhibition at 25 µg/mL: 11 mm
Fusarium verticillioides [26]
  zone of inhibition at 50 µg/mL: 14 mm
Fusarium verticillioides [27]
  zone of inhibition at 75 µg/mL: 20 mm
Fusarium verticillioides [28]
  zone of inhibition at 100 µg/mL: 26 mm
Fusarium oxysporum [30]
  zone of inhibition at 50 µg/mL: 11 mm
Fusarium oxysporum [31]
  zone of inhibition at 75 µg/mL: 14 mm
Fusarium oxysporum [32]
  zone of inhibition at 100 µg/mL: 17 mm
